Among the test systems are ACHN; OVCAR-3; OVCAR-4; UACC-62; CCRF-CEM; UO-31; SF-295; SN12C; UACC-257; SF-268; CAKI-1; Malme-3M; DU-145; HCT-15; TK-10; HL-60; NCI-H226; U-251; OVCAR-5; MCF7.
Holding throughout (assay): DTP human tumour cell line panel, 48 h

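In this assay, cells in 96-well plates receive the compound at five concentrations for 48 hours. Endpoints are linearly interpolated between the surrounding concentrations. GI50 = concentration required for 50% inhibition of growth.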 Calls of active or inactive are those of the source. Rule as the data show it: active = GI50 up to about 1.1 µM and inactive = higher. Residues, ends and D or L forms follow the SMILES beside them.

What is called GI50 is the concentration that inhibits growth by half.

With `C(=N/Nc1ccccn1)/c1cccnc1`, the GI50 is > 100 µM (inactive) in the experiment with ACHN; > 100 µM (inactive) with OVCAR-3; 98.9 µM (inactive) with OVCAR-4; 94.6 µM (inactive) with UACC-62; > 100 µM (inactive) in the experiment on CCRF-CEM; > 100 µM (inactive) with UO-31. In addition, the GI50 in the experiment with SF-295 was > 100 µM (inactive); with SN12C, > 100 µM (inactive); in the experiment on UACC-257, 89.3 µM (inactive); in the experiment on SF-268, > 100 µM (inactive); in the experiment with CAKI-1, > 100 µM (inactive); in the experiment with Malme-3M, 66.4 µM (inactive). In addition, the GI50 in the experiment with DU-145 is > 100 µM (inactive); with HCT-15, over 100 µM; with TK-10 it was > 100 µM (inactive); in the experiment on HL-60, > 100 µM (inactive); with NCI-H226, > 100 µM (inactive); with U-251 it was > 100 µM (inactive). Also, the GI50 in the experiment on OVCAR-5 was > 100 µM (inactive); in the experiment with MCF7, 43.9 µM (inactive).
Turning to `CCC(C)C(NC(=O)C1CCCN1)C(=O)NC(C(=O)NCC(=O)NC(CC(N)=O)C(=O)NC(CC(C)C)C(=O)NC(CC(C)C)C(=O)NC(CCCCN)C(N)=O)C(C)C` (stereo not given) (H-PIVGNLLK-NH2; configuration not given here), the GI50 with ACHN, in the experiment with OVCAR-3, in the experiment on OVCAR-4, in the experiment with UACC-62, in the experiment with CCRF-CEM and with UO-31 was > 75 µM (inactive) each time. The GI50 in the experiment on SF-295, in the experiment with SN12C, with UACC-257, with SF-268, in the experiment with CAKI-1 and in the experiment on Malme-3M was > 75 µM (inactive) each time. Besides, the GI50 in the experiment with DU-145 is > 75 µM (inactive); in the experiment with HCT-15 it was over 75 µM; with TK-10 it was > 75 µM (inactive); with HL-60, 23 µM (inactive); in the experiment with NCI-H226, > 75 µM (inactive); in the experiment with U-251 it was > 75 µM (inactive). Also, the GI50 with OVCAR-5 and with MCF7 was > 75 µM (inactive) each time.
On to `CCCCc1ccc(Nc2nc(Cl)c3c(ncn3COCCOC(C)=O)n2)cc1`, for which the GI50 was 18.5 µM (inactive) in the experiment on ACHN; 21.2 µM (inactive) with OVCAR-3; 24.8 µM (inactive) in the experiment with OVCAR-4; 16.6 µM (inactive) with UACC-62; 28.2 µM (inactive) in the experiment on CCRF-CEM; 18.7 µM (inactive) with UO-31. Further, the GI50 was 14.4 µM (inactive) in the experiment with SF-295; 19.3 µM (inactive) with SN12C; 17.1 µM (inactive) in the experiment on UACC-257; 19.2 µM (inactive) in the experiment with SF-268; 25.9 µM (inactive) in the experiment on CAKI-1; 19.4 µM (inactive) in the experiment on Malme-3M. The GI50 in the experiment on DU-145 was 16.6 µM (inactive); in the experiment with HCT-15, 16.3 µM; with TK-10, 20.4 µM (inactive); with HL-60, 21.6 µM (inactive); with NCI-H226, 17.4 µM (inactive); with U-251, 22.9 µM (inactive). The GI50 in the experiment with OVCAR-5 is 18.5 µM (inactive); in the experiment with MCF7 it was 22.5 µM (inactive).
`CC(=O)N1c2ccccc2C23CCN4CC5=CCOC(O)C(C5CC42)C13` (stereo not given): the GI50 in the experiment with ACHN, in the experiment with OVCAR-3, in the experiment with OVCAR-4, in the experiment with UACC-62, in the experiment with CCRF-CEM and in the experiment on UO-31 was > 100 µM (inactive) throughout. For the same compound, the GI50 with SF-295, in the experiment on SN12C, in the experiment with UACC-257, in the experiment with SF-268, in the experiment on CAKI-1 and in the experiment on Malme-3M was > 100 µM (inactive) each time. In addition, the GI50 with DU-145 was > 100 µM (inactive); in the experiment with HCT-15 it was over 100 µM; in the experiment with TK-10 it was > 100 µM (inactive); in the experiment with HL-60, > 100 µM (inactive); in the experiment on NCI-H226, > 100 µM (inactive); with U-251 it was > 100 µM (inactive). For the same compound, the GI50 with OVCAR-5 and in the experiment with MCF7 was > 100 µM (inactive) each time.

These data come from ChEMBL document CHEMBL1201862, “PubChem BioAssay data set” (2004).
